Values quoted from earlier work in patent US20250186525A1, “DECAFFEINATED YERBA MATE EXTRACT, ANTI-OBESITY COMPOSITION, DECAFFEINATION METHOD AND METHOD FOR THE PRODUCTION OF A YERBA MATE EXTRACT” (priority 2022, published 2025).

Columns and labels:
[1] = test system: mice; conditions: isolated from a hot water extract of yerba mate
[2] = test system: fat accumulation; conditions: cell and animal tests
[3] = test system: fatty acid synthase

| SMILES | food intake [1] | inhibitory effect on fat accumulation [2] | gene expression of fatty acid synthase [3] |
| --- | --- | --- | --- |
| O=C(/C=C/c1ccc(O)c(O)c1)O[C@@H]1CC(O)(C(=O)O)C[C@@H](OC(=O)/C=C/c2ccc(O)c(O)c2)C1O (stereo partly shown) [3,5-dicaffeoylquinic acid] | significantly reduces |  |  |
| Cn1c(=O)c2c(ncn2C)n(C)c1=O [caffeine] |  | showed an inhibitory effect | reduced |
| O=C(/C=C/c1ccc(O)c(O)c1)O[C@@H]1C[C@](O)(C(=O)O)C[C@@H](O)[C@H]1O [chlorogenic acid] | significantly reduces |  |  |
